These results are taken from PMC8740820 (Toxicology and applied pharmacology, 2014).

“Also recorded” adds a separate entry of the source.

Assay [1] has as its target T1, zfERα (Danio rerio, UniProt P57717).
T1 sequence (P57717 1-569): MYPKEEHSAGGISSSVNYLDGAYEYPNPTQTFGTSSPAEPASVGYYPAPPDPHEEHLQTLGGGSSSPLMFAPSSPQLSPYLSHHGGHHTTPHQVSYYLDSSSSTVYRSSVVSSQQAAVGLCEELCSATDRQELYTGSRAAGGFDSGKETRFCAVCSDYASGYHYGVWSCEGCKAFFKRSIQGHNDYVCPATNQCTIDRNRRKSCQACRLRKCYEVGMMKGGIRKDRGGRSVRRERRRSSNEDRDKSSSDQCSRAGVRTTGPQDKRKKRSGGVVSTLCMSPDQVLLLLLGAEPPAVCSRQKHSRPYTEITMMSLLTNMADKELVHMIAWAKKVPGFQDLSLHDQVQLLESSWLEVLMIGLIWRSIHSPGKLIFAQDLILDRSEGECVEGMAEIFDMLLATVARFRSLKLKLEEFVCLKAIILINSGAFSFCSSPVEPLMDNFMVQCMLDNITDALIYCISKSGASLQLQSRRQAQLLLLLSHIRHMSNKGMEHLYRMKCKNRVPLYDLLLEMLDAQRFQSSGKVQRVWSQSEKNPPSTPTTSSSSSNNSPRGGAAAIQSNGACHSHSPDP
Put plainly: HELN-zfERα transcriptional inhibition. It counts as cell-based, zebrafish.

Assay [2] addresses T2, zfERβ1 (Danio rerio, UniProt Q5PR29). It counts as cell-based, zebrafish. As to conditions: HELN-zfERβ1.
Assay [3] deals with T3, zfERβ2 (Danio rerio, UniProt Q7ZU32). Put plainly: HELN-zfERβ2 transcriptional inhibition. The format is cell-based, zebrafish.
The target in assay [4] is T2, zfERβ1. As to conditions: HELN-zfERβ1.
The target in assay [5] is T3, zfERβ2. The settings on record: HELN-zfERβ2.
For another assay, the target named is hERβ (Homo sapiens, UniProt Q92731). The settings on record: ref Escande et al., 2006; cited from earlier work.
Another assay concerns 5×ERE:GFP reporter. As to conditions: 5×ERE:GFP zebrafish larvae; ref Gorelik et al., 2014; cited from earlier work.
Assay [6] addresses T1, zfERα. Description: HELN-zfERα luciferase transactivation assay. The settings on record: HELN-zfERα.

hERβ, sequence (Q92731 whole entry): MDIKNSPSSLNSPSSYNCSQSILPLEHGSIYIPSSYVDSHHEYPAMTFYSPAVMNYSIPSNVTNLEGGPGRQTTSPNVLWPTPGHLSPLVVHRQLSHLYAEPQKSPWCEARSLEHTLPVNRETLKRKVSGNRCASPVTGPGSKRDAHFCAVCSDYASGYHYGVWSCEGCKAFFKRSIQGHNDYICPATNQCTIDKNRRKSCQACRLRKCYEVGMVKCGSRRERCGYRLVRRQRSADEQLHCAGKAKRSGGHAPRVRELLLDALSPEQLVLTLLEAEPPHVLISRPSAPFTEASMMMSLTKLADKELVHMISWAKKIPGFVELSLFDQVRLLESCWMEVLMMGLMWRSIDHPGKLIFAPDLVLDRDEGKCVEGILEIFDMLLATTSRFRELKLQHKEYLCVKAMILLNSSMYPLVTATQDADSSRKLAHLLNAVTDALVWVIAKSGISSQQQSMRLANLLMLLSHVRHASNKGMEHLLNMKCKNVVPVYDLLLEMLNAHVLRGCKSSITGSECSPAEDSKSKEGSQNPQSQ

Take `CCCc1c(-c2ccc(O)cc2)nn(-c2ccc(O)cc2)c1-c1ccc(O)cc1` [PPT, 4,4′,4″-(4-Propyl-[^1H]-pyrazole-1,3,5-triyl)trisphenol]: on zfERα [1], the “antagonistic activity on zfERα (in words)” value is listed as “full antagonistic activity”. The “antagonistic activity on zfERβ1 (in words)” value on zfERβ1 [2] is listed as “partially antagonize”. The “antagonistic activity on zfERβ2 (in words)” value on zfERβ2 [3] is given as “partially antagonize”. Further, the “agonistic activity on zfERβ1 (in words)” value on zfERβ1 [4] is listed as “partially activated; also recorded: slightly activated”. Besides, the “agonistic activity on zfERβ2 (in words)” value on zfERβ2 [5] was “partially activated; also recorded: slightly activated”. In addition, the “agonistic activity on hERβ (in words)” value at hERβ is “unable to activate hERβ”. In addition, in the assay with 5×ERE:GFP reporter, the “tissue of GFP expression” value was “GFP labeling of only the larval liver”. Moreover, on zfERα [6], the “agonistic activity on zfERα (in words)” value is on record as “did not activate zfERα at all; also recorded: devoid of agonistic activity”.
